Reference: US6933290B2, “2-{N-(2-amino-3-(heteroaryl or aryl)propionyl)-aminoacyl}-amino}-alkylboronic acid derivatives” (Novartis AG, priority 2001, dated 2005)
“And” between values parts separate entries of the source, which are not always exact repeats. Equal values may be shown once.

biological target: T1, chymotrypsin-like activity of the 20S proteasome (Homo sapiens, UniProt P20618+P28074); assay: Inhibition of the chymotrypsin-like activity of the 20S proteasome (Suc-LLVY-AMC hydrolysis); format: biochemical; conditions: purified human placenta 20S proteasome, Suc-LLVY-AMC substrate, read-out: IC50 [μM] (results of one or two experiments)
T1 construct: purified human placenta 20S proteasome; tissue Diabetes Forschungsinstitut, Düsseldorf, Germany; host or cells: human placenta
From the text: It is based on the hydrolysis of the fluorogenic peptide Suc-LLVY-AMC (Succinyl-leucine-leucine-vatine-tyrosine-7-amino-4-methyl-coumarin), which is cleaved exclusively at the Y-AMC bond by the 20S proteasome. Hydrolysis of this peptide is accompanied by an increase in fluorescence intensity (λex (excitation wavelength): 355 nm; μem (emission wavelength): 460 nm) due to release of the […] that accompanies diffusion apart of the hydrolysis product Suc-LLVY.
2 μl of a 1 mM solution of a test compound in DMSO (dimethylsulfoxide, 20 μM final concentration in the well) are preincubated for 60 min at room temperature in black 96-well microtiter plates together with a mixture of 1 μl purified human placenta 20S proteasome (Diabetes Forschungsinstitut, DÜsseldorf, Germany; about 100 ng proteasome, depending on the proteasome preparation) and 47 μl buffer-Ca (5 mM CaCl2, 20 mM Tris/HCl (Tris-(hydroxymethyl)-amino-methane hydrochloride) pH 8.0). 3 μl of a 2.67 mM solution of Suc-LLVY-AMC (Bachem, Switzerland) in DMSO (80 μM final concentration in the well) and 47 μl buffer-Ca are mixed and added. The resulting mixture is incubated for 3-24 h at 37° C. If desired, proteolysis of the substrate can be stopped by addition of 50 μl stop solution (100 mM monochloroacetic acid, 130 mM NaOH, 100 mM acetic acid, pH=4.3). The fluorescence is monitored with a FLUOROSKAN ASCENT™ microtiter plate reader.
For each measurement series two control experiments are carried out: • 1.) 0% value: 2 μl DMSO are used in the above described assay instead of 2 μl of a 1 mM solution of a test compound in DMSO and 48 μl buffer-Ca instead of a mixture of 47 μl buffer-Ca and 1 μl purified proteasome. • 2.) 100% value: in the above described assay 2 μl DMSO are used instead of 2 μl of a 1 mM solution of the test compound in DMSO. Calculation [formula]
The IC50 value is defined as that concentration of a compound at which the remaining activity is 50% compared to the […].

| IC50 | Molecule |
| --- | --- |
| 0.0003 µM | COc1cc(C[C@H](NC(=O)Cc2cccc(Oc3ccccc3)c2)C(=O)N[C@H](C(=O)N[C@@H](CC(C)C)B2O[C@@H]3C[C@@H]4C[C@@H](C4(C)C)[C@]3(C)O2)C(C)C)cc(OC)c1OC [Example 27, (S)-3-Methyl-N-[(R)-3-methyl-1-((1S,2S,6R,8S)-2,9,9-trimethyl-3,5-dioxa-4-bora-tricyclo[6.1.1.0^2,6]dec-4-yl)-butyl]-2-[(S)-2-[2-(3-phenoxy-phenyl)-acetylamino]-3-(3,4,5-trimethoxy-phenyl)-propionylamino]-butyramide] |
| 0.0021 µM | COc1cc(C[C@H](Nc2cccc(-c3ccccc3)c2)C(=O)N[C@H](C(=O)NC(CC(C)C)B(O)O)C(C)C)cc(OC)c1OC (stereo partly drawn) [Example 24, 1-{(S)-2-[(S)-2-(Biphenyl-3-ylamino)-3-(3,4,5-trimethoxy-phenyl)-propionylamino]-3-methyl-butyrylamino}-3-methyl-butylboronic acid] |
| 0.0015 µM | CC(C)C[C@H](NC(=O)[C@@H](NC(=O)[C@H](Cc1ccc(OCc2ccccc2)cc1)Nc1cccc(-c2ccccc2)c1)C(C)C)B(O)O [Example 18, (R)-1-{(S)-2-[(S)-3-(4-Benzyloxy-phenyl)-2-(biphenyl-3-ylamino)-propionylamino]-3-methyl-butyrylamino}-3-methyl-butylboronic acid] |
| 0.0028 µM and 0.0045 µM | COc1ccc(C[C@H](Nc2cccc(-c3ccccc3)c2)C(=O)N[C@H](C(=O)N[C@@H](CC(C)C)B(O)O)C(C)C)cc1 [Example 8, (R)-1-{(S)-2-[(S)-2-(Biphenyl-3-ylamino)-3-(4-methoxy-phenyl)-propionylamino]-3-methyl-butyrylamino}-3-methyl-butylboronic acid] |
| 0.0019 µM and 0.0015 µM | COc1ccc(C[C@H](NC(=O)Cc2cccc(Oc3ccccc3)c2)C(=O)N[C@H](C(=O)N[C@@H](CC(C)C)B(O)O)C(C)C)c(OC)c1OC [Example 4] |
| 0.0038 µM | COc1cc(C[C@H](Nc2cccc(C(C)C)c2)C(=O)N[C@H](C(=O)N[C@@H](CC(C)C)B(O)O)C(C)C)cc(OC)c1OC [Example 12, (R)-1-{(S)-2-[(S)-2-(3-Isopropyl-phenylamino)-3-(3,4,5-trimethoxy-phenyl)-propionylamino]-3-methyl-butyrylamino}-3-methyl-butylboronic acid] |
| 0.0039 µM | COc1cc(C[C@H](Nc2cccc(C(C)C)c2)C(=O)N[C@H](C(=O)N[C@@H](CC(C)C)B2O[C@@H]3C[C@@H]4C[C@@H](C4(C)C)[C@]3(C)O2)C(C)C)cc(OC)c1OC [Example 11, (S)-2-[(S)-2-(3-Isopropyl-phenylamino)-3-(3,4,5-trimethoxy-phenyl)-propionylamino]-3-methyl-N-[(R)-3-methyl-1-((1S,2S,6R,8S)-2,9,9-trimethyl-3,5-dioxa-4-bora-tricyclo[6.1.1.0^2,6]dec-4-yl)-butyl]-butyramide] |
| 0.0022 µM | COc1cc(C[C@H](Nc2cccc(-c3ccccc3)c2)C(=O)N[C@@H](CC(C)C)C(=O)N[C@@H](CC(C)C)B2O[C@@H]3C[C@@H]4C[C@@H](C4(C)C)[C@]3(C)O2)cc(OC)c1OC [Example 31, (S)-2-[(S)-2-(Biphenyl-3-ylamino)-3-(3,4,5-trimethoxy-phenyl)-propionylamino]-4-methyl-pentanoic acid [(R)-3-methyl-1-((1S,2S,6R,8S)-2,9,9-trimethyl-3,5-dioxa-4-bora-tricyclo[6.1.1.0^2,6]dec-4-yl)-butyl]-amide] |
| 0.0022 µM | COc1ccc(C[C@H](Nc2cccc(-c3ccccc3)c2)C(=O)N[C@@H](C)C(=O)N[C@@H](CC(C)C)B(O)O)c(OC)c1OC [Example 40, (R)-1-{(S)-2-[(S)-2-(Biphenyl-3-ylamino)-3-(2,3,4-trimethoxy-phenyl)-propionylamino]-propionylamino}-3-methyl-butylboronic acid] |
| 0.0059 µM | CC(C)C[C@H](NC(=O)[C@@H](NC(=O)[C@H](Cc1ccc(OCc2ccccc2)cc1)NC(=O)Cc1cccc(OCc2ccccc2)c1)C(C)C)B(O)O [Example 30, (R)-1-((S)-2{(S)-3-(4-Benzyloxy-phenyl)-2-[2-(3-benzyloxy-phenyl)-acetylamino]-propionylamino}-3-methyl-butyrylamino)-3-methyl-butylboronic acid] |
| 0.001 µM | COc1ccc(C[C@H](Nc2cccc(-c3ccccc3)c2)C(=O)N[C@@H](C)C(=O)N[C@@H](CC(C)C)B(O)O)cc1OC [Example 44, (R)-1-{(S)-2-[(S)-2-(Biphenyl-3-ylamino)-3-(3,4-dimethoxy-phenyl)-propionylamino]-propionylamino}-3-methyl-butylboronic acid] |

| Molecule | IC50 |
| --- | --- |
| (R)-1-{(S)-2-[(S)-2-(3-Isopropyl-phenylamino)-3-(3,4,5-trimethoxy-phenyl)-propionylamino]-propionylamino}-3-methyl-butylboronic acid [Example 46] | 0.0019 µM |
| (R)-1-{(S)-2-[(S)-2-(Biphenyl-3-ylamino)-3-(3,4,5-trimethoxy-phenyl)-propionylamino]-4-methyl-pentanoylamino}-3-methyl-butylboronic acid [Example 34] | 0.0013 µM |
